Drawing on patent US20240383886A1, “Protein Tyrosine Phosphatase Degraders and Methods of Use Thereof” (CALICO LIFE SCIENCES LLC, priority 2019, published 2024), this text covers DC50 for 19 molecules.

Assay [1] concerns the target T1, PTPN2 (Homo sapiens, UniProt P17706).
T1 construct: expressed in transfected cells; host or cells: 293T (293T.109 HiBiT-PTPN2 line; parental 293T WT from ATCC)
T1 sequence (P17706 1-415): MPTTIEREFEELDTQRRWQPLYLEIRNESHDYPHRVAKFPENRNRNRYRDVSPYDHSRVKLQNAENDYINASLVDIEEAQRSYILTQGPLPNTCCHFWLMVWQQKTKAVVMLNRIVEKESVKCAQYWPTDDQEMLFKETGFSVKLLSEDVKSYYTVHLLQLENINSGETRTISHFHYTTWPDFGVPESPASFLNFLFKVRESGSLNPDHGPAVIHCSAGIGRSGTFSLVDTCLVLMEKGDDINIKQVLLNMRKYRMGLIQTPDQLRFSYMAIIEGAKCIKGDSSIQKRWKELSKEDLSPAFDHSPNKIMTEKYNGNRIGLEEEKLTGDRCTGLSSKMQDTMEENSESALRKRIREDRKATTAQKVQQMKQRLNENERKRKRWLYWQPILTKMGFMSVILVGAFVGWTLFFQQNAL
In words: HiBiT-Degradation 293T.109 PTPN2 (Nano-Glo HiBiT Lytic Assay). The assay is classed as cell-based. The note with it: 293T.109 (HiBiT-PTPN2) cells, 24.0 hours. Summed up:
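Luminescence from a lytic HiBiT read gave PTPN2 levels after 24 h compound exposure at 37° C. Compounds were tested at 11 half-log points from a 10 μM top concentration, in duplicate. The cells were 293T engineered with an N-terminal HiBiT–PTPN2 fusion, plated at 5000 per well, with untreated wells as negative control and no-reagent wells as positive control.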

Assay [2] concerns PTPN2. Briefly: HiBiT-Degradation B16F10.4 PTPN2. The assay is classed as cell-based. The note with it: B16F10.4 cells, 24.0 hours.

Turning to `Cn1c(=O)n(C2CCC(=O)NC2=O)c2ccc(C3CN(CC(=O)Nc4ccc5c(F)c(N6CC(=O)NS6(=O)=O)c(O)cc5c4)C3)cc21` (centres unmarked) [Example 160, 2-[3-[1-(2,6-dioxo-3-piperidyl)-3-methyl-2-oxo-benzimidazol-5-yl]azetidin-1-yl]-N-[5-fluoro-7-hydroxy-6-(1,1,4-trioxo-1,2,5-thiadiazolidin-2-yl)-2-naphthyl]acetamide], the values for the DC50 at PTPN2 [1] and with PTPN2 [2] were 10 to 50 nM and 200 to 1000 nM, respectively.

As to `Cn1c(=O)n(C2CCC(=O)NC2=O)c2ccc(C3CCN([C@H](CO)C(=O)Nc4ccc5c(F)c(N6CC(=O)NS6(=O)=O)c(O)cc5c4)CC3)cc21` (stereo partly drawn) [Example 183, (2R)—N-(6-(1,1-dioxido-4-oxo-1,2,5-thiadiazolidin-2-yl)-5-fluoro-7-hydroxynaphthalen-2-yl)-2-(4-(1-(2,6-dioxopiperidin-3-yl)-3-methyl-2-oxo-2,3-dihydro-1H-benzo[d]imidazol-5-yl)piperidin-1-yl)-3-hydroxypropanamide], the DC50 on PTPN2 [1] and in the assay with PTPN2 [2] was 10 to 50 nM in each case.

Regarding `Cn1c(=O)n(C2CCC(=O)NC2=O)c2ccc(-c3ccc(CNC(=O)c4ccc5c(F)c(N6CC(=O)NS6(=O)=O)c(O)cc5c4)cc3)cc21` (centres unmarked) [Example 106], the DC50 on PTPN2 [1] and in the assay on PTPN2 [2] was 200 to 1000 nM throughout.

Regarding `CC(C)(Nc1cccc2c1C(=O)N(C1CCC(=O)NC1=O)C2=O)c1cn(CCOCCC(=O)NCCOc2ccc3cc(O)c(N4CC(=O)NS4(=O)=O)c(F)c3c2)nn1` (centres unmarked) [Example 37], the DC50 on PTPN2 [1] and with PTPN2 [2] was at least 1000 nM throughout.

As for `O=C1CCC(N2Cc3cc(NCc4cn(CCC(=O)Nc5ccc6c(F)c(N7CC(=O)NS7(=O)=O)c(O)cc6c5)nn4)ccc3C2=O)C(=O)N1` (centres unmarked) [Example 15, 3-[4-[[[2-(2,6-dioxo-3-piperidyl)-1-oxo-isoindolin-5-yl]amino]methyl]triazol-1-yl]-N-[5-fluoro-7-hydroxy-6-(1,1,4-trioxo-1,2,5-thiadiazolidin-2-yl)-2-naphthyl]propanamide], the DC50 at PTPN2 [1] and in the assay on PTPN2 [2] was 200 to 1000 nM in each case.

Regarding `Cn1c(=O)n(C2CCC(=O)NC2=O)c2ccc(C3CCN(CC(=O)N4CC[C@@H](COc5ccc6cc(O)c(N7CC(=O)NS7(=O)=O)c(F)c6c5)C4)CC3)cc21` (stereo partly drawn) [Example 131, 3-[5-[1-[2-[(3R)-3-[[8-fluoro-6-hydroxy-7-(1,1,4-trioxo-1,2,5-thiadiazolidin-2-yl)-2-naphthyl]oxymethyl]pyrrolidin-1-yl]-2-oxo-ethyl]-4-piperidyl]-3-methyl-2-oxo-benzimidazol-1-yl]piperidine-2,6-dione], the DC50 lay in the range of 10 to 50 nM on PTPN2 [1] and 50 to 200 nM in the assay on PTPN2 [2].

Regarding `Cn1c(=O)n(C2CCC(=O)NC2=O)c2ccc(C3CCN(CC(=O)N4CC(c5ccc6c(F)c(N7CC(=O)NS7(=O)=O)c(O)cc6c5)C4)CC3)cc21` (centres unmarked) [Example 115, 3-(5-(1-(2-(3-(6-(1,1-dioxido-4-oxo-1,2,5-thiadiazolidin-2-yl)-5-fluoro-7-hydroxynaphthalen-2-yl)azetidin-1-yl)-2-oxoethyl)piperidin-4-yl)-3-methyl-2-oxo-2,3-dihydro-1H-benzo[d]imidazol-1-yl)piperidine-2,6-dione], the DC50 at PTPN2 [1] and in the assay with PTPN2 [2] was 200 to 1000 nM in each case.

Take `Cn1c(=O)n(C2CCC(=O)NC2=O)c2ccc(N3CCC(CC(=O)N4CCC(c5ccc6cc(O)c(N7CC(=O)NS7(=O)=O)c(F)c6c5)CC4)CC3)cc21` (centres unmarked) [Example 124, 3-[5-[4-[2-[4-[8-fluoro-6-hydroxy-7-(1,1,4-trioxo-1,2,5-thiadiazolidin-2-yl)-2-naphthyl]-1-piperidyl]-2-oxo-ethyl]-1-piperidyl]-3-methyl-2-oxo-benzimidazol-1-yl]piperidine-2,6-dione]: the DC50 on PTPN2 [1] and in the assay with PTPN2 [2] was 200 to 1000 nM throughout.

As for `C[C@@H]1CC(c2ccc3c(c2)n(C)c(=O)n3C2CCC(=O)NC2=O)CCN1CC(=O)Nc1ccc2c(F)c(N3CC(=O)NS3(=O)=O)c(O)cc2c1` (stereo partly drawn) [Example 178, N-(6-(1,1-dioxido-4-oxo-1,2,5-thiadiazolidin-2-yl)-5-fluoro-7-hydroxynaphthalen-2-yl)-2-((2R)-4-(1-(2,6-dioxopiperidin-3-yl)-3-methyl-2-oxo-2,3-dihydro-1H-benzo[d]imidazol-5-yl)-2-methylpiperidin-1-yl)acetamide], the DC50 on PTPN2 [1] lay within 10 to 50 nM; in the assay on PTPN2 [2], 50 to 200 nM.

Take `Cn1c(=O)n(C2CCC(=O)NC2=O)c2ccc(C3CCN(CCN4CCC[C@@H](COc5ccc6cc(O)c(N7CC(=O)NS7(=O)=O)c(F)c6c5)C4)CC3)cc21` (stereo partly drawn) [Example 137, 3-[5-[1-[2-[(3R)-3-[[8-fluoro-6-hydroxy-7-(1,1,4-trioxo-1,2,5-thiadiazolidin-2-yl)-2-naphthyl]oxymethyl]-1-piperidyl]ethyl]-4-piperidyl]-3-methyl-2-oxo-benzimidazol-1-yl]piperidine-2,6-dione]: the DC50 on PTPN2 [1] and with PTPN2 [2] was 50 to 200 nM throughout.

Turning to `O=C1CCC(N2C(=O)c3cccc(NCc4cn(CCOCCOCCC(=O)Nc5ccc6c(F)c(N7CC(=O)NS7(=O)=O)c(O)cc6c5)nn4)c3C2=O)C(=O)N1` (centres unmarked) [Example 63], the DC50 at PTPN2 [1] was 200 to 1000 nM; in the assay with PTPN2 [2], at least 1000 nM.

Regarding `Cn1c(=O)n(C2CCC(=O)NC2=O)c2ccc(C3CCN(Cc4cnn(-c5ccc6cc(O)c(N7CC(=O)NS7(=O)=O)c(F)c6c5)c4)CC3)cc21` (centres unmarked) [Example 125, 3-[5-[1-[[1-[8-fluoro-6-hydroxy-7-(1,1,4-trioxo-1,2,5-thiadiazolidin-2-yl)-2-naphthyl]pyrazol-4-yl]methyl]-4-piperidyl]-3-methyl-2-oxo-benzimidazol-1-yl]piperidine-2,6-dione], the values for the DC50 on PTPN2 [1] and with PTPN2 [2] were 50 to 200 nM and 200 to 1000 nM, respectively.

For `Cn1c(=O)n(C2CCC(=O)NC2=O)c2ccc(C3CCN(CC(=O)NCCOc4ccc5cc(O)c(N6CC(=O)NS6(=O)=O)c(Cl)c5c4)CC3)cc21` (centres unmarked) [Example 100, N-[2-[[8-chloro-6-hydroxy-7-(1,1,4-trioxo-1,2,5-thiadiazolidin-2-yl)-2-naphthyl]oxy]ethyl]-2-[4-[1-(2,6-dioxo-3-piperidyl)-3-methyl-2-oxo-benzimidazol-5-yl]-1-piperidyl]acetamide], the DC50 at PTPN2 [1] and in the assay with PTPN2 [2] was 200 to 1000 nM throughout.

Take `Cn1c(=O)n(C2CCC(=O)NC2=O)c2ccc(C3CCN(CCC(=O)Nc4ccc5c(F)c(N6CC(=O)NS6(=O)=O)c(O)cc5c4)CC3)cc21` (centres unmarked) [Example 170, N-(6-(1,1-dioxido-4-oxo-1,2,5-thiadiazolidin-2-yl)-5-fluoro-7-hydroxynaphthalen-2-yl)-3-(4-(1-(2,6-dioxopiperidin-3-yl)-3-methyl-2-oxo-2,3-dihydro-1H-benzo[d]imidazol-5-yl)piperidin-1-yl)propanamide]: the DC50 on PTPN2 [1] fell in the range of 10 to 50 nM; in the assay on PTPN2 [2], 50 to 200 nM.

Consider `Cn1c(=O)n(C2CCC(=O)NC2=O)c2ccc(C3=CCC(CNC(=O)c4ccc5c(F)c(N6CC(=O)NS6(=O)=O)c(O)cc5c4)CC3)cc21` (centres unmarked) [Example 102], for which the DC50 at PTPN2 [1] and in the assay with PTPN2 [2] was 200 to 1000 nM each time.

On to `Cn1c(=O)n(C2CCC(=O)NC2=O)c2ccc(N3CCC(CC(=O)N4CCC[C@@H](COc5ccc6cc(O)c(N7CC(=O)NS7(=O)=O)c(F)c6c5)C4)CC3)cc21` (stereo partly drawn) [Example 142, 3-[5-[4-[2-[(3R)-3-[[8-fluoro-6-hydroxy-7-(1,1,4-trioxo-1,2,5-thiadiazolidin-2-yl)-2-naphthyl]oxymethyl]-1-piperidyl]-2-oxo-ethyl]-1-piperidyl]-3-methyl-2-oxo-benzimidazol-1-yl]piperidine-2,6-dione], for which the DC50 at PTPN2 [1] lay in the range of 50 to 200 nM; in the assay on PTPN2 [2], 200 to 1000 nM.

Regarding `Cn1c(=O)n(C2CCC(=O)NC2=O)c2ccc(C3CCN(C(=O)Cn4cc(-c5ccc6c(F)c(N7CC(=O)NS7(=O)=O)c(O)cc6c5)cn4)CC3)cc21` (centres unmarked) [Example 74, 3-[5-[1-[2-[4-[5-fluoro-7-hydroxy-6-(1,1,4-trioxo-1,2,5-thiadiazolidin-2-yl)-2-naphthyl]pyrazol-1-yl]acetyl]-4-piperidyl]-3-methyl-2-oxo-benzimidazol-1-yl]piperidine-2,6-dione], the DC50 at PTPN2 [1] was below 10 nM; in the assay on PTPN2 [2], 50 to 200 nM.

For `Cn1c(=O)n(C2CCC(=O)NC2=O)c2ccc(C3CCN(CC(=O)N4CCC(c5ccc6cc(O)c(N7CC(=O)NS7(=O)=O)c(F)c6c5)C4)CC3)cc21` (centres unmarked) [Example 90, 3-[5-[1-[2-[3-[8-fluoro-6-hydroxy-7-(1,1,4-trioxo-1,2,5-thiadiazolidin-2-yl)-2-naphthyl]pyrrolidin-1-yl]-2-oxo-ethyl]-4-piperidyl]-3-methyl-2-oxo-benzimidazol-1-yl]piperidine-2,6-dione], the results for the DC50 on PTPN2 [1] and with PTPN2 [2] were 50 to 200 nM and 200 to 1000 nM, respectively.

Regarding `Cn1nc(C2CCC(=O)NC2=O)c2ccc(C3CCN(CC(=O)NCCOc4ccc5cc(O)c(N6CC(=O)NS6(=O)=O)c(F)c5c4)CC3)cc21` (centres unmarked) [Example 8, 2-[4-[3-(2,6-dioxo-3-piperidyl)-1-methyl-indazol-6-yl]-1-piperidyl]-N-[2-[[8-fluoro-6-hydroxy-7-(1,1,4-trioxo-1,2,5-thiadiazolidin-2-yl)-2-naphthyl]oxy]ethyl]acetamide], the figures for the DC50 at PTPN2 [1] and in the assay with PTPN2 [2] were 10 to 50 nM and 50 to 200 nM, respectively.
